Values after ≈ are worked out from the molar mass of the structure shown. Where two headings read alike, the source gives them in different places. Values belong to the compound of their own block, whether it stands above or below them.
Columns and labels:
Assay type in all cases: cell-based
Candida krusei ATCC6258 = test: Anti-fungal MIC assay; conditions: Pichia kudriavzevii, second round (Table 6)
Procedure: (§1) The first round of testing included Candida parapsilosis, Candida krusei, Paecilomyces variotii, Candida albicans, Aspergillus fumigatus, and Blastomyces dermatitidis. […] The second round of testing included Candida parapsilosis, Candida krusei, Candida albicans, Candida auris, Candida glabrata, Candida guilliermondii, and Cryptococcus neoformans.
(§2) Stock solutions of the investigational agent were prepared at concentrations 100-times the highest concentration to be tested (6400 μg/ml) using dimethyl sulfoxide. Aliquots of the stock solutions were dispensed into polystyrene vials and stored at −20° C.
(§3) The synthetic medium RPMI-1640 (with glutamine, without bicarbonate, and with phenol red) was used. The RPMI was buffered to a pH of 7.0+0.1 at 25° C. with 0.165M MOPS (3-[N-morpholino] propanesulfonic acid). Sterile U-shaped 96-well cell culture plates were used to perform the MIC assays. Dilutions of the DMSO stocks were prepared in RPMI to achieve 2× concentrations. After the dilutions of the working 2× investigational antifungal solutions were prepared, 0.1 ml of each concentration was transferred into a pre-specified column of the U-shaped 96-well cell culture plate using sterile pipettes.
(§4) Fungal isolates were grown on Sabouraud dextrose agar (yeasts) or potato flake agar (filamentous fungi) and cells were collected after an appropriate period of growth for each species being evaluated (e.g., 48-72 hours for yeasts and 7 days for filamentous fungi). The fungi were suspended in sterile distilled water, and the densities of the fungal suspension were read using a spectrophotometer and adjusted to an appropriate optical density specific for each fungal species. The fungal suspension of each isolate was then diluted in RPMI. A sufficient volume of the test inoculum was prepared to directly inoculate 0.1 ml into each test well of the 96-well cell culture plate. Final inoculum ranges were dependent on the fungal species to be tested (e.g., 0.4×103 to 5×10^3 cells/ml for yeasts and dimorphic fungi, and 0.4×104 to 5×10^4 cells/ml for filamentous fungi). Each well of the 96-well cell culture plate containing the investigational antifungal compounds (0.1 ml volume) was inoculated on the day of the assay with 0.1 ml of the fungal suspension. Growth control wells contained 0.1 ml of fungal suspension and 0.1 ml of the growth medium without antifungal agents. The media control well contained 0.2 ml of the growth medium.
(§5) The microdilution trays were incubated at 35° C. without agitation. […] One positive comparator/control was used for yeast (fluconazole) and one was used for filamentous fungi (voriconazole).

[1] = tested on: Candida guilliermondii Cgui2; test: Anti-fungal MIC assay; conditions: Meyerozyma guilliermondii
Procedure: as §1, §2, §3, §4, §5

Candida albicans CA6 = test: Anti-fungal MIC assay
Procedure: as §1, §2, §3, §4, §5

Candida glabrata CG3 = test: Anti-fungal MIC assay; conditions: Nakaseomyces glabratus
Procedure: as §1, §2, §3, §4, §5

Candida parapsilosis CP3 = test: Anti-fungal MIC assay; conditions: Lodderomyces parapsilosis
Procedure: as §1, §2, §3, §4, §5

Candida auris DI17-47 = test: Anti-fungal MIC assay; conditions: Candidozyma auris
Procedure: as §1, §2, §3, §4, §5

Candida albicans CA5 = test: Anti-fungal MIC assay
Procedure: as §1, §2, §3, §4, §5

Candida albicans 43001 = test: Anti-fungal MIC assay
Procedure: as §1, §2, §3, §4, §5

Candida glabrata 05-761 = test: Anti-fungal MIC assay
Procedure: as §1, §2, §3, §4, §5

Candida albicans CA3 = test: Anti-fungal MIC assay
Procedure: as §1, §2, §3, §4, §5

Candida parapsilosis CP1 = test: Anti-fungal MIC assay
Procedure: as §1, §2, §3, §4, §5

[2] = tested on: Cryptococcus neoformans H99; test: Anti-fungal MIC assay
Procedure: as §1, §2, §3, §4, §5

[3] = tested on: Paecilomyces variotii MYA-3630; test: Anti-fungal MIC assay
Procedure: as §1, §2, §3, §4, §5

[4] = tested on: Candida guilliermondii Cgui3; test: Anti-fungal MIC assay; conditions: Meyerozyma guilliermondii
Procedure: as §1, §2, §3, §4, §5

Candida parapsilosis CP2 = test: Anti-fungal MIC assay; conditions: Lodderomyces parapsilosis
Procedure: as §1, §2, §3, §4, §5

Candida auris DI17-48 = test: Anti-fungal MIC assay; conditions: Candidozyma auris
Procedure: as §1, §2, §3, §4, §5

[5] = tested on: Candida guilliermondii Cgui1; test: Anti-fungal MIC assay; conditions: Meyerozyma guilliermondii
Procedure: as §1, §2, §3, §4, §5

[6] = tested on: Cryptococcus neoformans USC 1597; test: Anti-fungal MIC assay
Procedure: as §1, §2, §3, §4, §5

[7] = tested on: Candida albicans ATCC90028; test: Anti-fungal MIC assay
Procedure: as §1, §2, §3, §4, §5

Candida albicans SC5314 = test: Anti-fungal MIC assay
Procedure: as §1, §2, §3, §4, §5

[8] = tested on: Candida parapsilosis ATCC22019; test: Anti-fungal MIC assay; conditions: Lodderomyces parapsilosis
Procedure: as §1, §2, §3, §4, §5

Candida auris DI17-46 = test: Anti-fungal MIC assay; conditions: Candidozyma auris
Procedure: as §1, §2, §3, §4, §5

Candida glabrata 05-62 = test: Anti-fungal MIC assay
Procedure: as §1, §2, §3, §4, §5

[9] = tested on: Cryptococcus neoformans CN3; test: Anti-fungal MIC assay
Procedure: as §1, §2, §3, §4, §5

[10] = tested on: Staphylococcus aureus ATCC 19636; test: MIC assay against gram positive and antibiotic-resistant S. aureus; conditions: Staphylococcus aureus, ATCC19636
Procedure: (§6) The MICs of vancomycin and linezolid were determined as quality controls and the MIC values of each strain met the acceptance criteria based on PDS historical reference data.
(§7) The direct colony suspension method was used to prepare inoculated broth. Isolated colonies were taken from an 18-24 h culture plate. Optical density measurements (OD620 nm) were used to estimate the bacterial density. The test article, compound 3, and reference control stock solutions were prepared in 100% DMSO as 50× stock solutions. The 50× stock solutions were diluted by 2-fold serial titrations with 100% DMSO for a total of 11 concentrations. A 4 μL aliquot of each dilution was added to 196 μL of cation-adjusted Mueller Hinton Broth II medium seeded with the organism in wells of a 96 well plate. The final vehicle concentration was two percent (2%) in all assay wells. The final bacterial count was 2 to 8×10^5 CFU/mL. The final compound 3 concentration range was 16 to 0.016 μg/mL. Each test substance dilution was evaluated in duplicate on one test occasion. Vehicle-control and reference controls were used as blank and positive controls, respectively. Plates were incubated at 35-37° C. for 18 h. The test plates were visually examined and each well was visually scored for growth or complete inhibition of growth. The MIC value was recorded.

[11] = tested on: Staphylococcus aureus BAA-1556 (MRSA); test: as above; conditions: Staphylococcus aureus
Procedure: as §6, §7

[12] = tested on: Staphylococcus aureus ATCC 33591 (MRSA); test: as above; conditions: Staphylococcus aureus
Procedure: as §6, §7

[13] = tested on: Staphylococcus aureus VRS-2 (VRSA); test: as above; conditions: Staphylococcus aureus, VRSA
Procedure: as §6, §7

[14] = read-out: MIC, 50% growth inhibition
[15] = read-out: MIC, 100% growth inhibition

MIC (Candida krusei ATCC6258; ATCC6258, C. krusei ATCC 6258, read-out: MIC, 50% growth inhibition): 16 µg/mL (≈ 52.2 µM)
MIC (Candida krusei ATCC6258; ATCC6258, read-out: MIC, 100% growth inhibition, C. krusei ATCC 6258): 32 µg/mL (≈ 104 µM)
MIC [1, 14]: 2 µg/mL (≈ 6.53 µM)
MIC [1, 15]: 4 µg/mL (≈ 13.1 µM)
MIC (Candida albicans CA6; [14]): 0.25 µg/mL (≈ 0.816 µM)
MIC (Candida albicans CA6; [15]): > 64 µg/mL
MIC (Candida glabrata CG3; [14]): 0.5 µg/mL (≈ 1.63 µM)
MIC (Candida glabrata CG3; [15]): 64 µg/mL (≈ 209 µM)
MIC (Candida parapsilosis CP3; [14]): 1 µg/mL (≈ 3.27 µM)
MIC (Candida parapsilosis CP3; [15]): 1 µg/mL (≈ 3.27 µM)
MIC (Candida auris DI17-47; DI1747, read-out: MIC, 50% growth inhibition): > 64 µg/mL
MIC (Candida auris DI17-47; DI1747, read-out: MIC, 100% growth inhibition): > 64 µg/mL
MIC (Candida albicans CA5; [14]): 0.25 µg/mL (≈ 0.816 µM)
MIC (Candida albicans CA5; [15]): > 64 µg/mL
MIC (Candida albicans 43001; [14]): > 64 µg/mL
MIC (Candida albicans 43001; [15]): > 64 µg/mL
MIC (Candida glabrata 05-761; Nakaseomyces glabratus, 05761, read-out: MIC, 50% growth inhibition): 8 µg/mL (≈ 26.1 µM)
MIC (Candida glabrata 05-761; Nakaseomyces glabratus, 05761, read-out: MIC, 100% growth inhibition): 32 µg/mL (≈ 104 µM)
MIC (Candida albicans CA3; [14]): > 64 µg/mL
MIC (Candida albicans CA3; [15]): > 64 µg/mL
MIC (Candida parapsilosis CP1; [14]): 0.5 µg/mL (≈ 1.63 µM)
MIC (Candida parapsilosis CP1; [15]): 1 µg/mL (≈ 3.27 µM)
MIC [2, 14]: 16 µg/mL (≈ 52.2 µM)
MIC [2, 15]: 32 µg/mL (≈ 104 µM)
MIC ([3]; MYA3630, read-out: MIC, 50% growth inhibition): 16 µg/mL (≈ 52.2 µM)
MIC ([3]; MYA3630, read-out: MIC, 100% growth inhibition): 32 µg/mL (≈ 104 µM)
MIC [4, 14]: 2 µg/mL (≈ 6.53 µM)
MIC [4, 15]: 4 µg/mL (≈ 13.1 µM)
MIC (Candida parapsilosis CP2; [14]): 0.5 µg/mL (≈ 1.63 µM)
MIC (Candida parapsilosis CP2; [15]): 0.5 µg/mL (≈ 1.63 µM)
MIC (Candida auris DI17-48; DI1748, read-out: MIC, 50% growth inhibition): 2 µg/mL (≈ 6.53 µM)
MIC (Candida auris DI17-48; DI1748, read-out: MIC, 100% growth inhibition): 16 µg/mL (≈ 52.2 µM)
MIC [5, 14]: 1 µg/mL (≈ 3.27 µM)
MIC [5, 15]: 4 µg/mL (≈ 13.1 µM)
MIC ([6]; USC1597, read-out: MIC, 50% growth inhibition): 4 µg/mL (≈ 13.1 µM)
MIC ([6]; USC1597, read-out: MIC, 100% growth inhibition): 8 µg/mL (≈ 26.1 µM)
MIC [7, 14]: ≤ 0.125 µg/mL
MIC [7, 15]: > 64 µg/mL
MIC (Candida albicans SC5314; [14]): 0.25 µg/mL (≈ 0.816 µM)
MIC (Candida albicans SC5314; [15]): > 64 µg/mL
MIC ([8]; ATCC22019, C. parapsilosis ATCC 22019, second round (Table 6), read-out: MIC, 50% growth inhibition): 2 µg/mL (≈ 6.53 µM)
MIC ([8]; ATCC22019, Candida parapsilosis ATCC22019, first round (Table 5), read-out: MIC, 50% growth inhibition): 1 µg/mL (≈ 3.27 µM)
MIC ([8]; ATCC22019, read-out: MIC, 100% growth inhibition, C. parapsilosis ATCC 22019, second round (Table 6)): 2 µg/mL (≈ 6.53 µM)
MIC ([8]; ATCC22019, read-out: MIC, 100% growth inhibition, Candida parapsilosis ATCC22019, first round (Table 5)): 2 µg/mL (≈ 6.53 µM)
MIC (Candida auris DI17-46; DI1746, read-out: MIC, 50% growth inhibition): > 64 µg/mL
MIC (Candida auris DI17-46; DI1746, read-out: MIC, 100% growth inhibition): > 64 µg/mL
MIC (Candida glabrata 05-62; Nakaseomyces glabratus, 0562, read-out: MIC, 50% growth inhibition): > 64 µg/mL
MIC (Candida glabrata 05-62; Nakaseomyces glabratus, 0562, read-out: MIC, 100% growth inhibition): > 64 µg/mL
MIC [9, 14]: > 64 µg/mL
MIC [9, 15]: > 64 µg/mL
SMILES: OC(Cn1cncn1)(Cn1cncn1)c1ccc(F)cc1F [Fluconazole, reference compound]

SMILES: CN[C@H](CC(C)C)C(=O)N[C@H]1C(=O)N[C@@H](CC(N)=O)C(=O)N[C@H]2C(=O)N[C@H]3C(=O)N[C@H](C(=O)N[C@H](C(=O)O)c4cc(O)cc(O)c4-c4cc3ccc4O)[C@H](O)c3ccc(c(Cl)c3)Oc3cc2cc(c3O[C@@H]2O[C@H](CO)[C@@H](O)[C@H](O)[C@H]2O[C@H]2C[C@](C)(N)[C@H](O)[C@H](C)O2)Oc2ccc(cc2Cl)[C@H]1O [Vancomycin]
MIC [10]: 0.5 µg/mL (≈ 0.345 µM)
MIC [11]: 0.5 µg/mL (≈ 0.345 µM)
MIC [12]: 0.5 µg/mL (≈ 0.345 µM)
MIC [13]: > 64 µg/mL

From patent US20230391727A1, “ANALOGUES OF PENTAMIDINE AND METHODS FOR TREATING INFECTIONS” (Auransa Inc., priority 2020, published 2023)
